Article PMC6691063, “Increased Body Weight and Fat Mass After Subchronic GIP Receptor Antagonist, but Not GLP-2 Receptor Antagonist, Administration in Rats” (Frontiers in Endocrinology, 2019)
Where two headings read alike, the source gives them in different places.

Legend:
[1] = Pharmacokinetic study of GIP(3-30)NH2, plasma radioimmunoassay; format: in vivo, rat
Experimental: Samples were taken at 0, 5, 10, 20, 30, and 45 min post-injection of GIP(3-30)NH2. Blood was immediately aliquoted into tubes containing final concentrations of EDTA 3.9 mmol/l. Samples were centrifuged (3,000 × g for 10 min at 4°C) and the plasma stored at −80°C until analysis. GIP(3-30)NH2 concentrations were measured in plasma with an in-house-developed radioimmunoassay ([50]) using a polyclonal antibody (code no. 95236) raised in rabbits against porcine GIP(1-30)NH2. As standard we used rat GIP(3-30)NH2 and the tracer was ^125I-labeled human GIP(3-30NH2).

Male Wistar rats [2] = assay: Plasma adipokines (leptin, resistin, adiponectin) after subchronic treatment; format: in vivo, rat; settings: 25 nmol/kg b.w. sc once daily for 3 weeks, vs vehicle, n = 6/group
Source text: (§1) After 1 week of acclimatization, animals were allocated into five groups (n = 6/each group). Rats received either vehicle, rat GIP(3-30)NH2, (25 nmol/kg b.w.), human (Pro3)GIP (25 nmol/kg b.w.), human GLP-2(3-33) (25 nmol/kg b.w.), or human GLP-2(11-33) (25 nmol/kg b.w.) sc daily at 6 PM for 3 weeks. […] To study bone resorption, blood was collected from the sublingual vein of rats at −2, −1, 0, 6, 10, 14, 17, 21 days of treatment. The day after the last injection, the rats were euthanized and blood was collected from the vena cava for further biochemical analysis. The liver was excised and samples were snap-frozen in liquid nitrogen and stored at −80°C until assayed.
(§2) To obtain serum, blood samples were allowed to clot for 30 min and were then centrifuged (10 min at 3,000 × g) and stored at −20°C until analysis. To obtain plasma, blood was collected into chilled tubes containing in final concentrations EDTA 3.9 mmol/l and valine-pyrolidide 0.01 mmol/l (a DPP-4 inhibitor, a gift from Novo Nordisk A/S, Bagsvaerd, Denmark). The samples were centrifuged (10 min at 3,000 × g, 4°C) and plasma was kept at −80°C until analysis.
(§3) Bone resorption was assessed by measurements of degradation product from C-terminal cross linked telopeptides of type 1 collagen (CTX, RatLaps; IDS Immunodiagnostic Systems GmbH, Frankfurt am Main, Germany). CTX values were expressed as percent of the mean of the baseline values (days−2,−1, 0) of the individual animal. The intra- and interassay coefficient of variation (CV's) of the assay is in the range 6–10 and 10–15%, respectively. Resistin was measured using rat resistin enzyme immunoassay kit (Bertinpharma, Montigny le Bretonneux, France). The intra-assay CV is <5%, the inter-assay <10%. Leptin was measured using rat leptin enzyme immunoassay kit (Mediagnost, Reutlingen, Germany). The intra- and inter-assay CV are <5%. Adiponectin was measured using rat adiponectin ELISA kit (Millipore, St. Charles, Missouri, USA). The intra- and inter-assay CV are <2 and <9%, respectively. LPL was measured using lipoprotein lipase ELISA kit (Cell Biolabs, San Diego, CA, USA). The intra- and inter-assay CV are <4 and <8%, respectively. All samples were analyzed in duplicates in the same assay to prevent inter assay variation.

Male Wistar rats [3] = assay: Plasma and intrahepatic triglycerides after subchronic treatment; format: in vivo, rat; settings: 25 nmol/kg b.w. sc once daily for 3 weeks, vs vehicle, n = 6/group; for Intrahepatic triglyceride content: liver lipid extract; for Plasma triglyceride levels: terminal blood
Source text: as §1, §2
Total liver lipids were extracted as previously described ([31]). The extracts were evaporated under vacuum in a rotary evaporator and re-suspended in 1 ml of isopropanol for quantification of triglycerides. Plasma and intrahepatic triglycerides were assessed using triglyceride determination kit (Sigma-Aldrich, Saint Louis, USA). All samples were analyzed in duplicates in the same assay to prevent inter assay variation.

Male Wistar rats [4] = assay: Plasma lipoprotein lipase (LPL) ELISA after subchronic treatment; format: in vivo, rat; settings: 25 nmol/kg b.w. sc once daily for 3 weeks, vs vehicle, n = 6/group
Source text: as §1, with “assayed. […]” for “assayed.”
Bone resorption was assessed by measurements of degradation product from C-terminal cross linked telopeptides of type 1 collagen (CTX, RatLaps; IDS Immunodiagnostic Systems GmbH, Frankfurt am Main, Germany). CTX values were expressed as percent of the mean of the baseline values (days−2,−1, 0) of the individual animal. […] Resistin was measured using rat resistin enzyme immunoassay kit (Bertinpharma, Montigny le Bretonneux, France). […] Leptin was measured using rat leptin enzyme immunoassay kit (Mediagnost, Reutlingen, Germany). […] Adiponectin was measured using rat adiponectin ELISA kit (Millipore, St. Charles, Missouri, USA). […] LPL was measured using lipoprotein lipase ELISA kit (Cell Biolabs, San Diego, CA, USA). […]

Male Wistar rats [5] = assay: Bone resorption: serum CTX (RatLaps) during subchronic treatment; format: in vivo, rat; settings: 25 nmol/kg b.w. sc once daily for 3 weeks, days 0-21, percent of individual baseline, vs vehicle, n = 6/group
Source text: as §1, §2, §3

Male Wistar rats [6] = assay: Subchronic treatment in rats: food intake, body weight, body composition (EchoMRI); format: in vivo, rat; settings: vs vehicle, n = 6/group; for Food intake: measured twice a week, cage means; for Body weight: monitored weekly
Experimental: All experiments were in accordance with internationally accepted principles for the care and use of laboratory animals and in compliance with an animal experiment license (2013/15–2934-00833) issued (to JH) by the Danish Committee for Animal Research. Male Wistar rats (Taconic, Denmark) weighing ~200 g at the time of arrival were housed two in each cage at the Panum Institute, Copenhagen, Denmark. They were kept in temperature- (21°C) and humidity-controlled (55%) rooms with light/dark cycles of 12 h with free access to standard rat chow and water.
as §1
Food intake was measured twice a week during the study period at 10 AM by subtracting the leftover weights from the initial weights and calculated as cage means (g/rat). Body weight was monitored weekly at 10 AM. Measures of body lean and fat mass were determined in live, conscious animals using quantitative magnetic resonance spectroscopy (EchoMRI-700TM; Echo MRI).

rat GIPR = settings: acts as a partial agonist at the rat GIPR, elsewhere ref 22, 25; cited from earlier work
[7] = cited from earlier work
Source text: Glucose-dependent insulinotropic peptide (GIP) and glucagon-like peptide-2 (GLP-2) are peptide hormones released from K and L cells of the gastrointestinal tract, respectively ([1], [2]). Both exert their functions through activation of specific G protein-coupled receptors ([3], [4]). The GIP receptor (GIPR) is expressed on different cell type including pancreatic cells, adipocytes ([5]), osteoblasts ([6]), and osteoclasts ([7]). The GLP-2 receptor (GLP-2R) is widely expressed in gastrointestinal tract and central nervous system ([8]–[10]) but fewer are found in the liver, vagal afferents, and ...

[8] = 25 nmol/kg b.w. sc once daily for 3 weeks

| Molecule | Intrahepatic triglyceride content (Male Wistar rats [3]) | Plasma triglyceride levels (Male Wistar rats [3]) | Plasma lipoprotein lipase (LPL) levels (Male Wistar rats [4]) | Serum CTX levels (bone resorption) (Male Wistar rats [5]) | Food intake (Male Wistar rats [6]; [8]) | Body weight (Male Wistar rats [6]; [8]) | also measured |
| --- | --- | --- | --- | --- | --- | --- | --- |
| CC[C@H](C)[C@H](NC(=O)[C@H](CO)NC(=O)[C@H](Cc1ccc(O)cc1)NC(=O)[C@H](CC(=O)O)NC(=O)[C@H](CO)NC(=O)[C@@H](NC(=O)[C@H](Cc1ccccc1)NC(=O)[C@@H](NC(=O)CNC(=O)[C@@H](N)CCC(=O)O)[C@@H](C)O)[C@@H](C)CC)C(=O)N[C@@H](C)C(=O)N[C@@H](CCSC)C(=O)N[C@@H](CC(=O)O)C(=O)N[C@@H](CCCCN)C(=O)N[C@H](C(=O)N[C@@H](CCCNC(=N)N)C(=O)N[C@@H](CCC(N)=O)C(=O)N[C@@H](CCC(N)=O)C(=O)N[C@@H](CC(=O)O)C(=O)N[C@@H](Cc1ccccc1)C(=O)N[C@H](C(=O)N[C@@H](CC(N)=O)C(=O)N[C@@H](Cc1c[nH]c2ccccc12)C(=O)N[C@@H](CC(C)C)C(=O)N[C@@H](CC(C)C)C(=O)N[C@@H](C)C(=O)N[C@@H](CCC(N)=O)C(=O)N[C@@H](CCCCN)C(N)=O)C(C)C)[C@@H](C)CC [GIP(3-30)NH2] | failed to change | increased | significantly enhanced | did not affect | no measurable effect |  | Cmax ([1]; rat plasma, after administration, in-house radioimmunoassay, data not shown, read-out: Maximum plasma concentration): ~17 nM; Tmax ([1]; rat plasma, in-house radioimmunoassay, data not shown, read-out: Time of maximum plasma concentration after administration (converted)): 10 min; Half-life ([1]; rat plasma, in-house radioimmunoassay, read-out: Half-life after injection): ~20 min; Duration of exposure for the antagonist ([1]; rat, concluded from peak level and half-life): ≤ 2 h; Plasma adiponectin (Male Wistar rats [2]; ELISA): no significant effect; Plasma leptin (Male Wistar rats [2]; enzyme immunoassay): increased; Plasma resistin (Male Wistar rats [2]; enzyme immunoassay): no significant effect; Lean mass (Male Wistar rats [6]; 25 nmol/kg b.w. sc once daily for 3 weeks, NMR spectroscopy (EchoMRI)): no difference; Body fat mass (Male Wistar rats [6]; 25 nmol/kg b.w. sc once daily for 3 weeks, end of treatment, NMR spectroscopy (EchoMRI)): increased; Body weight gain, first 2 weeks of treatment (Male Wistar rats [6]; 25 nmol/kg b.w. sc once daily): did not show differences; Body weight gain, third week of treatment (Male Wistar rats [6]; 25 nmol/kg b.w. sc once daily, p < 0.05): significantly increased |
| (Pro3)GIP | did not modify | did not modify | did not modify | did not affect | not associated with changes | not associated with changes | Plasma levels of adipokines (Male Wistar rats [2]; leptin, resistin, adiponectin (Figure 2)): did not modify; Ki (rat GIPR): 19 nM; Body composition (total fat and lean mass) (Male Wistar rats [6]; 25 nmol/kg b.w. sc once daily for 3 weeks, NMR (EchoMRI)): not associated with changes |
| GLP-2(3-33): Synthetic human GLP-2(3-33), GLP-2R antagonist, from Caslo laboratory (DGSFSDEMNTILDNLAARDFINWLIQTKITD; Glucagon-like peptide 2; UniProt P01275 148-178, looked up, fragment) |  |  |  | did not change | did not modify | did not modify |  |
| GLP-2(11-33): Synthetic human GLP-2(11-33), GLP-2R antagonist, from Caslo laboratory (NTILDNLAARDFINWLIQTKITD; Glucagon-like peptide 2; UniProt P01275 156-178, looked up, fragment) |  |  |  | did not change | did not modify | did not modify |  |
| Glucose-dependent insulinotropic peptide [GIP] |  |  |  |  |  |  | Half-life ([7]; humans, DPP-4 mediated degradation): about 7 min |
| glucagon-like peptide-2 [GLP-2] |  |  |  |  |  |  | Half-life ([7]; human, in vivo): about 7 min |
